# Results published in patent publication US12601718B2, “Method for pretreating ranitidine hydrochloride sample” (Hunan Institute for Drug Inspection and Testing, priority 2022, dated 2026).
# Experiments:
# [1] = cited from earlier work
# [2] = NDMA carcinogenicity / acceptable intake from CPDB toxicological data (TD50 linear extrapolation, rodent carcinogenicity data); format: in vivo; settings: 0.0959 μg÷300 mg
# Procedure: According to the toxicological data in the FDA according to the Carcinogenic Potency Database (CPDB database), the NDMA acceptable daily intake is set at about 0.096 μg. On Sep. 13, 2019, the FDA released a safety warning that some Ranitidine-based drugs (including the brand-name drug Zantac) contain the impurity of N-nitrosodimethylamine (NDMA). Subsequently, China launched special inspections and testing on NDMA for this variety.
# [3] = cited from earlier work; remark: listed apart in the source
SMILES,solubility in dichloromethane [1],solubility in water [1],limit value of the impurity NDMA in Ranitidine hydrochloride capsules [2],"NDMA acceptable daily intake ([3]; FDA, according to CPDB database)",carcinogen class ([3]; in vivo)
CNC(=C[N+](=O)[O-])NCCSCc1ccc(CN(C)C)o1 [Ranitidine],almost insoluble,readily soluble,,,
"CN(C)N=O [NDMA, N-nitrosodimethylamine]",almost insoluble,readily soluble,≈ 320 ng/g,about 0.096 μg,class-2A carcinogen
